In PMC3228891 (Journal of medicinal chemistry, 2011):

Assays:
H1 receptor = conditions: read-out: Ki H1 receptor (ChEMBLdb); known activity in ChEMBLdb ref 28; cited from earlier work
Human H3R = Human H3R (Homo sapiens, UniProt Q9Y5N1); test: Radioligand displacement assay, [3H]-N-α-methylhistamine binding
hH1R = hH1R (Homo sapiens, UniProt P35367); test: Inositol phosphate; type: cell-based; conditions: for functional character in histamine stimulated InsP accumulation assays: HEK293T cells transiently transfected with hH1R
human H1R = human H1R (Homo sapiens, UniProt P35367); test: Radioligand displacement assay, [3H]-mepyramine binding; conditions: displacement of [3H]-mepyramine, membranes of HEK293T cells transiently expressing human H1R; mean ± SEM, at least three independent measurements
Sequence of human H1R (P35367 whole entry): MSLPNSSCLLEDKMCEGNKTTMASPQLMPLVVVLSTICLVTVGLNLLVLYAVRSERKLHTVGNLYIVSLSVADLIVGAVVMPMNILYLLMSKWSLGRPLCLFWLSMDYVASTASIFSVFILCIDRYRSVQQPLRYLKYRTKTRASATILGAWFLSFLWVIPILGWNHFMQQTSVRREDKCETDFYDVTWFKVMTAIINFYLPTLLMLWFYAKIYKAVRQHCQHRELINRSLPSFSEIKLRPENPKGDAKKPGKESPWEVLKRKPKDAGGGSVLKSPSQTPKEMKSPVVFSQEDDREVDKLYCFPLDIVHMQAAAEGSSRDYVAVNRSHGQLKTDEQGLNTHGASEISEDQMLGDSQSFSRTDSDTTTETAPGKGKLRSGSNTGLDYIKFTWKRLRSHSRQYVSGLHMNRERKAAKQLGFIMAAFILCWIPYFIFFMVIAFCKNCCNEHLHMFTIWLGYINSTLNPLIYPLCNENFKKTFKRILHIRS

Sequence of hH1R (P35367 whole entry): as above
Sequence of Human H3R (Q9Y5N1 whole entry): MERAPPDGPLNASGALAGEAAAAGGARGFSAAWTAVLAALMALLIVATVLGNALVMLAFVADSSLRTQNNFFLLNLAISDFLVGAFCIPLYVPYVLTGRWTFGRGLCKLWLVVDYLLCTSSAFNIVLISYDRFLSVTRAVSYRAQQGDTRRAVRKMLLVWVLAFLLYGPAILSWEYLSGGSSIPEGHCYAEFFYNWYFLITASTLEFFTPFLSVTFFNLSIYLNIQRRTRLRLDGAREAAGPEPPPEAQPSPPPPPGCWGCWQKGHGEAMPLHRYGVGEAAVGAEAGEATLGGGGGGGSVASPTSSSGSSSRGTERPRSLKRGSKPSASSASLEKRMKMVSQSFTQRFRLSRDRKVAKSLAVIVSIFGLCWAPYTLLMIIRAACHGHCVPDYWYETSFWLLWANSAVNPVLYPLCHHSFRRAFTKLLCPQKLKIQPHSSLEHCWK

Row | SMILES | Ki (H1 receptor) [µM] | functional character in histamine stimulated InsP accumulation assays (hH1R) | further results
1 | CN(C)CCCN1c2ccccc2CCc2ccccc21 [Imipramine] | ≤ 10 |  | 
2 | Cc1ccc(/C(=C\CN2CCCC2)c2ccccn2)cc1 [Triprolidine] | ≤ 10 |  | 
3 | c1cnc2c(c1)cc([C@@H]1CCCO1)n2CCN1CCCCC1 [compound 10] |  | inverse agonists | H3R affinity (Human H3R): without H3R affinity
4 | c1ccc(Cc2ccccc2OC2CCNCC2)cc1 [compound 3] |  |  | inhibition of histamine-induced effects (hH1R; tested against histamine (0.1 μM), InsP accumulation): completely inhibit
5 | c1ccc2c(c1)n(CCN1CCCCC1)c1ncnn21 [compound 15] |  | inverse agonists | H3R affinity (Human H3R): without H3R affinity
6 | CN1CCN(c2nc(N3CCCC3)c3cnn(C)c3n2)CC1 [compound 4] |  |  | pKi H1R (human H1R): 7.21 ± 0.03
7 | NC1=NCC2c3ccccc3Cc3ccccc3N12 (stereo not drawn) [Epinastine] | ≤ 10 |  | 
8 | c1ccc2c(c1)nc1n(CCN3CCCCC3)cnn21 [compound 13] |  | inverse agonists | 
9 | CNCCCOc1cccc2ccccc12 [compound 9] |  | very weak partial agonist | intrinsic activity (hH1R; InsP accumulation, HEK293T hH1R): 0.07
